The test has as its system 5-HT3 receptors. Briefly: Antagonism of 5-HT at 5-HT3 receptors: inhibition of 5-HT-induced bradycardia (von Benzold Jarisch Reflex) in anesthesized rats. It is filed as in vivo, rat. The following applies: 100 μg/kg, i.v. (intrajugular); 5-HT 30 μg/kg given 5 min. later; urethane-anesthesized rats; tested as hydrochloride except Example 9. How it is done:
The compounds prepared in the above examples were respectively tested for antagonism of 5-HT at 5-HT3 receptors.
Administration of 5-HT (serotonin) to anesthesized rats via jugular vein induces temporary bradycardia (von Benzold Jarisch Reflex)(A.S. Paintal, Physiol. Rev., 53, 159-227 (1973)).
Thus, rats were anesthesized with urethane (1 g/kg, i.p.) and recorded for blood pressure and heart rate from left femoral artery. Percent inhibition was calculated from bradycardia induced by 5-HT (30 μg/kg) given 5 min. following intrajugular administration of a compound of the invention, taking the bradycardia induced by the intrajugular administration of 5-HT.
In this test, all of the test compounds were tested in the form of hydrochloride except for the compounds prepared in Example 9. Therefore, concentration of the test drug is expressed in terms of the concentration of the hydrochloride except for the compounds prepared in Example 9.
Consider `CC(OC(=O)c1nn(C)c2ccccc12)C1CCCCN1C` (single isomer, unassigned) [1 (less polar isomer), 1-(1-Methyl-2-piperidyl)ethyl 1-methylindazole-3-carboxylate], for which the “% Inhibition (of bradycardia induced by 5-HT)” value turned out to be 49%. Next, `COc1cc(N)ccc1C(=O)OC(C)C1CCCCN1C` (single isomer, unassigned) [5 (more polar isomer), 1-(1-Methyl-2-piperidyl)ethyl 2-methoxy-4-aminobenzoate]: 16%; `COc1cc(N)c(Cl)cc1C(=O)OC(C)C1CCCCN1C` (single isomer, unassigned) [7 (less polar isomer), (1-Methyl-Z-piperidyl)ethyl 2-methoxy-4 amino-5-chlorobenzoate]: 50%; `CN1CCCCC1COC(=O)c1nn(C)c2ccccc12` (stereo not shown) [Example 2, 1-Methyl-2-piperidylmethyl 1-methylindazole-3-carboxylate]: 34%. The figure for `COc1ccc2ncc(C(=O)OCC3CCCCN3C)cc2c1` (stereo not shown) [Example 3] is 26%. Next, `COc1cc(N)c(Cl)cc1C(=O)OCC1CCCCN1C` (stereo not shown) [Example 6, 1-Methyl-2-piperidylmethyl 2-methoxy-4-amino-5-chlorobenzoate]: 76%; `Cn1nc(C(=O)OCC2CCCC[N+]2(C)C)c2ccccc21` (stereo not shown) [Example 9, 1,1-Dimethyl-2-(1-methyl-3-indazolylcarboxymethyl)-piperidinium iodide]: 58%.

The record behind these values is US5246945A, “Piperidine derivatives” (Nisshin Flour Milling Co., Ltd., priority 1991, dated 1993).
